Data from PMC12136031 (Science Advances, 2025).
Read-outs that look alike come from different tables or passages of the source.

Columns and labels:
KvLQT1/minK = biological target: T1, KvLQT1/minK (Homo sapiens, UniProt P51787); test: Safety47 Ion Channel KvLQT1/minK; format: cell-based; details: for Emax: read-out: Max Response; for IC50: read-out: RC50 (IC50); for EC50: read-out: RC50 (EC50)
T1 construct: purchased Eurofins Panlab (Safety47 Safety Scan, contract panel)

CHRM1 = biological target: T2, CHRM1 (Homo sapiens, UniProt P11229); test: Safety47 Calcium Flux CHRM1; format: cell-based; details: for Emax: read-out: Max Response; for EC50: read-out: RC50 (EC50); for IC50: read-out: RC50 (IC50)
T2 construct: purchased Eurofins Panlab Safety47 Safety Scan
T2 sequence (P11229 1-460): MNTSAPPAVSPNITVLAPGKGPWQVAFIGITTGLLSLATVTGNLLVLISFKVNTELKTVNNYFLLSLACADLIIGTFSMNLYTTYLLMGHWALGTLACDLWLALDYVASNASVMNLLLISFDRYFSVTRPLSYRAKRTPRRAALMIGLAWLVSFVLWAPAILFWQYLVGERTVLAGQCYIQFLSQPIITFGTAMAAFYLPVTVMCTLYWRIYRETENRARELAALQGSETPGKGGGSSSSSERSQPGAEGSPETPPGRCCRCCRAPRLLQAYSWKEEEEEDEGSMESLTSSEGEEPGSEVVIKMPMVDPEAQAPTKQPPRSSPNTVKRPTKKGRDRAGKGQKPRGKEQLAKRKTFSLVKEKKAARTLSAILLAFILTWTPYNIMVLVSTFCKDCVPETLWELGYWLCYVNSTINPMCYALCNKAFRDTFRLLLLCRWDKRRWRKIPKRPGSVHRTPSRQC

DAT = biological target: T3, DAT (Homo sapiens, UniProt Q01959); test: Safety47 Transporter DAT; format: cell-based; details: Blocker; for Emax: read-out: Max Response; for IC50: read-out: RC50 (IC50)
T3 construct: purchased Eurofins Panlab (Safety47 Safety Scan, contract panel)
T3 sequence (Q01959 whole entry, species assumed): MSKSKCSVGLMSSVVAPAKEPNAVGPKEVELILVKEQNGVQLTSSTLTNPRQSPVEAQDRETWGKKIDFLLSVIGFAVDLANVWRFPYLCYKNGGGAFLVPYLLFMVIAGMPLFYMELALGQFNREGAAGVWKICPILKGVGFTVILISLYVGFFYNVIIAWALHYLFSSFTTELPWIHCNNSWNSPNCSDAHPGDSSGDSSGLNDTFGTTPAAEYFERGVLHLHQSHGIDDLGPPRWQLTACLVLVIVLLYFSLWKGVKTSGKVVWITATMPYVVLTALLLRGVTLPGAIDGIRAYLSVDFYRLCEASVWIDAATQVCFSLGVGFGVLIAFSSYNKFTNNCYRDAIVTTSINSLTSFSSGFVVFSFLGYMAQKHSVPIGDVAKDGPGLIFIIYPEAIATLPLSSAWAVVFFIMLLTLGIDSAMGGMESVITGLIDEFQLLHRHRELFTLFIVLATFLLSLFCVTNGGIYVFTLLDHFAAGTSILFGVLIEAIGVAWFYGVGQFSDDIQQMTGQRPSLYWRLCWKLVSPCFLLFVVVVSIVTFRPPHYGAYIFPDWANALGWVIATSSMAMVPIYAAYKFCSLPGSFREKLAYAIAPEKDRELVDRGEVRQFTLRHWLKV

HTR1B = biological target: T4, HTR1B (Homo sapiens, UniProt P28222); test: Safety47 cAMP HTR1B; format: cell-based; details: for Emax: read-out: Max Response; for EC50: read-out: RC50 (EC50); for IC50: read-out: RC50 (IC50)
T4 construct: purchased Eurofins Panlab (Safety47 Safety Scan, contract panel)
T4 sequence (P28222 whole entry, species assumed): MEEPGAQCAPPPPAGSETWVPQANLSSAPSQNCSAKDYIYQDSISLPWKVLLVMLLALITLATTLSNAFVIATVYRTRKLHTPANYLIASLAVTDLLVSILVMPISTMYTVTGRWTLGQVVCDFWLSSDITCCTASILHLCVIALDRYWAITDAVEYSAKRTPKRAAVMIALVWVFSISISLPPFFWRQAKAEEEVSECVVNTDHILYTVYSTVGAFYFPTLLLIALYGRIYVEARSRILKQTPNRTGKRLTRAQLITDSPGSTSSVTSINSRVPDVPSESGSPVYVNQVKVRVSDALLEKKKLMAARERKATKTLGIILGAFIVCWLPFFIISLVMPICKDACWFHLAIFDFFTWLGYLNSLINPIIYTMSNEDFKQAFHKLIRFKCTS

COX1 = biological target: T5, COX1 (Homo sapiens, UniProt P23219); test: Safety47 Enzymatic COX1; format: biochemical; details: Inhibitor; for Emax: read-out: Max Response; for IC50: read-out: RC50 (IC50)
T5 construct: purchased Eurofins Panlab (Safety47 Safety Scan, contract panel)

GABAA = test: Safety47 Ion Channel GABAA; format: cell-based; details: for IC50: read-out: RC50 (IC50); for EC50: read-out: RC50 (EC50)
VEGFR2 = biological target: T6, VEGFR2 (Homo sapiens, UniProt P35968); test: Safety47 Kinase Binding VEGFR2; details: Kinases, Inhibitor; for Emax: read-out: Max Response; for IC50: read-out: RC50 (IC50)
T6 construct: purchased Eurofins Panlab (Safety47 Safety Scan, contract panel)
T6 sequence (P35968 20-1356, species assumed): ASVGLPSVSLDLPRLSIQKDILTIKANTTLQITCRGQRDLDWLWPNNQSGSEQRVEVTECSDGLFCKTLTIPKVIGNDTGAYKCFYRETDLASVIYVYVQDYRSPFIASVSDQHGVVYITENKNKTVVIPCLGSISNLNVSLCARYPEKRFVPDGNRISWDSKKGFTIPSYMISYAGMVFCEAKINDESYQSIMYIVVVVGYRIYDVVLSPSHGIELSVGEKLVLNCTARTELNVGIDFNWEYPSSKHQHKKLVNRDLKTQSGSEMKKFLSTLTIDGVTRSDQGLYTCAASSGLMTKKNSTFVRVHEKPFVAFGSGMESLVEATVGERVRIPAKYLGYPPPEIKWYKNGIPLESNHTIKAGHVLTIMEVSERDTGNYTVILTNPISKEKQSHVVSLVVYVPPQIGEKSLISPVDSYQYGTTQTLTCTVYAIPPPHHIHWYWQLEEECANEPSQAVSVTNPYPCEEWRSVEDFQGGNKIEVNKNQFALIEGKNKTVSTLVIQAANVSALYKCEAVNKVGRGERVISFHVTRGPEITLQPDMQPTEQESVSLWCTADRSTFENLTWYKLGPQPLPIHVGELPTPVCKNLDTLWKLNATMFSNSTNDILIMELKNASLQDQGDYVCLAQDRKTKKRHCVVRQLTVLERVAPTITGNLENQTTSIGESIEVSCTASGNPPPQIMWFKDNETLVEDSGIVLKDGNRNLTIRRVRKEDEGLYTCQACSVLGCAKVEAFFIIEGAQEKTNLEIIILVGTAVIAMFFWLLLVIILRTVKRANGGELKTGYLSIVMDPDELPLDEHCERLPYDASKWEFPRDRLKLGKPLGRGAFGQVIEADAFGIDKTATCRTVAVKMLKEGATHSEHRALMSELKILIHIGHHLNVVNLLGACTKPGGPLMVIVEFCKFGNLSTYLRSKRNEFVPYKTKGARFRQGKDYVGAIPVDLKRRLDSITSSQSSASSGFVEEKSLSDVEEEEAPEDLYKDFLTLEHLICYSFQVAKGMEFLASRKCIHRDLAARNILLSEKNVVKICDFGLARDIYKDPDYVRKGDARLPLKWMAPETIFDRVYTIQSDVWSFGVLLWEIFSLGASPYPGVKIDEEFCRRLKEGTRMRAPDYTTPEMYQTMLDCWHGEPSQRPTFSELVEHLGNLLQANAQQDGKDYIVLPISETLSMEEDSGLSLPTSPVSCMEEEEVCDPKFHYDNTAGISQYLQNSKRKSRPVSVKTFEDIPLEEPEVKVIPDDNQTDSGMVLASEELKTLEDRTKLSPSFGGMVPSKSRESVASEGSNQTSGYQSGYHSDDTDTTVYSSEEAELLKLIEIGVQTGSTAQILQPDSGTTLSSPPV

PDE3A = biological target: T7, PDE3A (Homo sapiens, UniProt Q14432); test: Safety47 Enzymatic PDE3A; format: biochemical; details: Inhibitor; for Emax: read-out: Max Response; for IC50: read-out: RC50 (IC50)
T7 construct: purchased Eurofins Panlab (Safety47 Safety Scan, contract panel)
T7 sequence (Q14432 whole entry, species assumed): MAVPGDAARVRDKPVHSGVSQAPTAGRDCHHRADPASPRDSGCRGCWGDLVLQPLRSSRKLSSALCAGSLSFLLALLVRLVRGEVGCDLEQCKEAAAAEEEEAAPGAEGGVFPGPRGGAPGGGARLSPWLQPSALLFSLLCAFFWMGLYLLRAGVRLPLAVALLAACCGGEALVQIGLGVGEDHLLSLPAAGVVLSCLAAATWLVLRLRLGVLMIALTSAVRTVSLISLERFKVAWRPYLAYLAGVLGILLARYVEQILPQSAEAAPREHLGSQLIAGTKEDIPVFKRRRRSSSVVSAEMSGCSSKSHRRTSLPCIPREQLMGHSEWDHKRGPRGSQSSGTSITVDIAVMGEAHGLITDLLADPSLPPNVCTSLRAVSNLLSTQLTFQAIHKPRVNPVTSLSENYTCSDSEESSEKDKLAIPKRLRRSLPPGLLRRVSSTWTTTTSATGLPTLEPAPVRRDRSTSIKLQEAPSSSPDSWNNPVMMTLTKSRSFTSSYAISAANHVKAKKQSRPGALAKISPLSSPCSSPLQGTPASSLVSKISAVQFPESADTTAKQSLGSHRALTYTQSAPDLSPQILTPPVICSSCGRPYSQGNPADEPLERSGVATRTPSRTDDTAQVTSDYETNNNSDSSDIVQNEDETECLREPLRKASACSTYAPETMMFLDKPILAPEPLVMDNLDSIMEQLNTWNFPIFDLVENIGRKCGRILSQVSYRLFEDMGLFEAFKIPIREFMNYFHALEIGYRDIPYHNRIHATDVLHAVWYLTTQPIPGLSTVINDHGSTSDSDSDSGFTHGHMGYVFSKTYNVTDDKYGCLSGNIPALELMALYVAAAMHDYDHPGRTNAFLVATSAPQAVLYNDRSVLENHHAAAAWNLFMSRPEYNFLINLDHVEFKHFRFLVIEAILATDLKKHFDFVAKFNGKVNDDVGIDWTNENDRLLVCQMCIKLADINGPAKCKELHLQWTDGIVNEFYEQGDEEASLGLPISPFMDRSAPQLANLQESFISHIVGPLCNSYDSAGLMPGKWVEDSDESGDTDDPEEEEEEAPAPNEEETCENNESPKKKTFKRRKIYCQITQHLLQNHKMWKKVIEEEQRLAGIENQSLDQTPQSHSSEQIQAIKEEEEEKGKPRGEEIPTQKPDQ

[1] = biological target: DCAF7 / phosphorylated TFEB peptide (Ser138, Ser142) (Homo sapiens, UniProt P61962); test: TFEB peptide binding assay with recombinant DCAF7; details: DCAF7 preincubated with compound
ADRA1A = biological target: T8, ADRA1A (Homo sapiens, UniProt P35348); test: Safety47 Calcium Flux ADRA1A; format: cell-based; details: for Emax: read-out: Max Response; for EC50: read-out: RC50 (EC50); for IC50: read-out: RC50 (IC50)
T8 construct: purchased Eurofins Panlab Safety47 Safety Scan
T8 sequence (P35348 1-466): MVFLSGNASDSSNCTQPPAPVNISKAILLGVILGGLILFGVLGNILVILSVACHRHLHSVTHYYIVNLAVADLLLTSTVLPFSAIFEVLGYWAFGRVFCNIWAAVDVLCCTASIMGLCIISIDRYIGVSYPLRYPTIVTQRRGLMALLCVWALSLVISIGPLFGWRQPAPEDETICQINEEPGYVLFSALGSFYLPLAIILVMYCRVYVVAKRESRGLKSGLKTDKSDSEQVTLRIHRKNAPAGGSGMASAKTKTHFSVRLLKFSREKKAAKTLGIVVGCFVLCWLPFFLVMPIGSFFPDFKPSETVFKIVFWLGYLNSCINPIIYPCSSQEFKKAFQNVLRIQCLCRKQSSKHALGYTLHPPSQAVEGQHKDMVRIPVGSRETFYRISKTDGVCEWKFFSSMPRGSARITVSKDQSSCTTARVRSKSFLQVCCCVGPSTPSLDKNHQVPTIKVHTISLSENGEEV

NMDAR (1A/2B) = biological target: T9, NMDAR (1A/2B) (Homo sapiens, UniProt Q05586+Q13224); test: Safety47 Ion Channel NMDAR (1A/2B); format: cell-based; details: for Emax: read-out: Max Response; for IC50: read-out: RC50 (IC50); for EC50: read-out: RC50 (EC50)
T9 construct: purchased Eurofins Panlab (Safety47 Safety Scan, contract panel)
T9 sequence (Q13224 27-1484, other chains not shown): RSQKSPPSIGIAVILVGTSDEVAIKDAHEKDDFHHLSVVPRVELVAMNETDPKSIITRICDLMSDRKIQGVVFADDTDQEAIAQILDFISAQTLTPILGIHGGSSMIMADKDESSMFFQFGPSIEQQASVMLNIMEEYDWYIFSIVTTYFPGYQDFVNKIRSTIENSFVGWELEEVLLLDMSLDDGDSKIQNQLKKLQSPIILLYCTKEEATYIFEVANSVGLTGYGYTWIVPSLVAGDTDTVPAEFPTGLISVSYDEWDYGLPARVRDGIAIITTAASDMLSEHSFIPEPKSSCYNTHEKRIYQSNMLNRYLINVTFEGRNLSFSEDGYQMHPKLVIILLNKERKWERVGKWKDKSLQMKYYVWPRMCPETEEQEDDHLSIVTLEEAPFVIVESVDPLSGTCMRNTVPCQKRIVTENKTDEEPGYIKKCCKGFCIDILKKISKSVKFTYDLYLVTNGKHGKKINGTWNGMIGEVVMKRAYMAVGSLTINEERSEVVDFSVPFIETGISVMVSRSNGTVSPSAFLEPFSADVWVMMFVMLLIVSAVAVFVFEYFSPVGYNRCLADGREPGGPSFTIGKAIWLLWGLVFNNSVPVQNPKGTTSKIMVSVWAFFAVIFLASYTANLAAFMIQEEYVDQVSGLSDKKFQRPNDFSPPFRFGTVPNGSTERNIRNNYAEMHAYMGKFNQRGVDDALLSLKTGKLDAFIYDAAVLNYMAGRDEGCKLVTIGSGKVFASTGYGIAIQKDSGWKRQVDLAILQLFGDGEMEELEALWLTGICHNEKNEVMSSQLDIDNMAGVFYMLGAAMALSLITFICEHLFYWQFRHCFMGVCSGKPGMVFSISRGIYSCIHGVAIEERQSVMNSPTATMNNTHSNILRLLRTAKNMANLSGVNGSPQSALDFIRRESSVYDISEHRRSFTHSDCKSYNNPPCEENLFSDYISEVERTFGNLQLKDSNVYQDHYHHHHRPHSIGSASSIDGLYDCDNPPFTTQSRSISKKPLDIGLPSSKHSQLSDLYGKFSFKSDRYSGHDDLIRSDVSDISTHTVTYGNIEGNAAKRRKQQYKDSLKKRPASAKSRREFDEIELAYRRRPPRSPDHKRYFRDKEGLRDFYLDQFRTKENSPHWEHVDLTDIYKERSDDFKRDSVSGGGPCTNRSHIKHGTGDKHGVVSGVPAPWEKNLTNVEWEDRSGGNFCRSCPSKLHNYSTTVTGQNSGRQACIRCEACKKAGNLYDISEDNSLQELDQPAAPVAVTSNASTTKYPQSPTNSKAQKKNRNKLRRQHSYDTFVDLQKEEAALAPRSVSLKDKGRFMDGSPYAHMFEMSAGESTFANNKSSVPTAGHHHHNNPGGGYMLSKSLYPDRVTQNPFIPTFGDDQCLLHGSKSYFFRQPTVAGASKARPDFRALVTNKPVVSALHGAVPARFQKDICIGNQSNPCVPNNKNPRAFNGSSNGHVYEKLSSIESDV

HTR3A = biological target: T10, HTR3A (Homo sapiens, UniProt P46098); test: Safety47 Ion Channel HTR3A; format: cell-based; details: for Emax: read-out: Max Response; for IC50: read-out: RC50 (IC50); for EC50: read-out: RC50 (EC50)
T10 construct: purchased Eurofins Panlab (Safety47 Safety Scan, contract panel)
T10 sequence (P46098 24-478): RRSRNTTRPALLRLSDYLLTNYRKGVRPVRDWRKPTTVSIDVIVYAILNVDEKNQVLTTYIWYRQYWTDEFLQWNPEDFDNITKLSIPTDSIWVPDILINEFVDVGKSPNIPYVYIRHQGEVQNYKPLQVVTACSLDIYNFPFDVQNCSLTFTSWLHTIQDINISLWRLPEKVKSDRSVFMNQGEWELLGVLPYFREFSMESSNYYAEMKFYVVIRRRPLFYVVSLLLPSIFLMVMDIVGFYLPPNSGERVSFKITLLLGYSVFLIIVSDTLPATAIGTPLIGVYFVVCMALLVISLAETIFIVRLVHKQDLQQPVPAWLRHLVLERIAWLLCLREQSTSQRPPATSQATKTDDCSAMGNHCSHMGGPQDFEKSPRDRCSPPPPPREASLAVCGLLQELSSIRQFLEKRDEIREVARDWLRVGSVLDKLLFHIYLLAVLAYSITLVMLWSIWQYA

Row | Structure (SMILES) | Emax (KvLQT1/minK; Blocker) | IC50 (KvLQT1/minK; Blocker) | Emax (KvLQT1/minK; Opener) | EC50 (KvLQT1/minK; Opener) | Emax (CHRM1; Agonist) | EC50 (CHRM1; Agonist) | Emax (CHRM1; Antagonist) | IC50 (CHRM1; Antagonist) | Emax (DAT) | IC50 (DAT) | Emax (HTR1B; Agonist) | EC50 (HTR1B; Agonist) | Emax (HTR1B; Antagonist) | IC50 (HTR1B; Antagonist) | Emax (COX1) | IC50 (COX1) | Max Response (GABAA; Blocker) | IC50 (GABAA; Blocker) | Max Response (GABAA; Opener) | EC50 (GABAA; Opener) | further results
1 | Cl.c1ccc2c(Nc3ccc4[nH]ccc4c3)nc(-c3ccncc3)nc2c1 [BC18630, N-1H-indol-5-yl-2-pyridin-4-ylquinazolin-4-amine hydrochloride] | 21.4% | > 10 µM | 6.18% | > 10 µM | 0% | > 10 µM | 7.76% | > 10 µM | 37% | > 10 µM | 12.5% | > 10 µM | 5.74% | > 10 µM | 21.8% | > 10 µM | 27.61 | > 10 µM | 0.97 | > 10 µM | Emax (VEGFR2): 13.7%; IC50 (VEGFR2): > 10 µM; Emax (PDE3A): 8.9%; IC50 (PDE3A): > 10 µM; In vitro peptide binding [1]: reduced; Emax (ADRA1A; Agonist): 0%; EC50 (ADRA1A; Agonist): > 10 µM; Emax (ADRA1A; Antagonist): 0%; IC50 (ADRA1A; Antagonist): > 10 µM; Emax (NMDAR (1A/2B); Blocker): 0%; IC50 (NMDAR (1A/2B); Blocker): > 10 µM; Emax (NMDAR (1A/2B); Opener): 0%; EC50 (NMDAR (1A/2B); Opener): > 10 µM; Curve Bottom (HTR3A; Blocker): 0; Curve Top (HTR3A; Blocker): 100; Hill (HTR3A; Blocker): 1.9; Emax (HTR3A; Blocker): 69.9%; IC50 (HTR3A; Blocker): 6.43 µM; Emax (HTR3A; Opener): 0%; EC50 (HTR3A; Opener): > 10 µM
2 | Cl.Fc1cc(Nc2nc(-c3ccncc3)nc3ncccc23)cc2cc[nH]c12 [BC18813, N-(7-fluoro-1H-indol-5-yl)-2-pyridin-4-ylpyrido[2,3-d]pyrimidin-4-amine hydrochloride] | 12.9% | > 10 µM | 3.89% | > 10 µM | 0% | > 10 µM | 15.3% | > 10 µM | 16.8% | > 10 µM | 27.4% | > 10 µM | 0.13% | > 10 µM | 29.3% | > 10 µM | 19.98 | > 10 µM | 0.77 | > 10 µM | Emax (VEGFR2): 0.27%; IC50 (VEGFR2): > 10 µM; Emax (PDE3A): 28.2%; IC50 (PDE3A): > 10 µM; In vitro peptide binding [1]: reduced; Emax (ADRA1A; Agonist): 5.5%; EC50 (ADRA1A; Agonist): > 10 µM; Emax (ADRA1A; Antagonist): 1.12%; IC50 (ADRA1A; Antagonist): > 10 µM; Emax (NMDAR (1A/2B); Blocker): 13.8%; IC50 (NMDAR (1A/2B); Blocker): > 10 µM; Emax (NMDAR (1A/2B); Opener): 0%; EC50 (NMDAR (1A/2B); Opener): > 10 µM; Emax (HTR3A; Blocker): 0%; IC50 (HTR3A; Blocker): > 10 µM; Emax (HTR3A; Opener): 0.03%; EC50 (HTR3A; Opener): > 10 µM
